What all share (experiment): microbe, parasite or virus in culture
Format in all cases: cell-based

Assay [1] deals with Escherichia coli ATCC 25922. As to conditions: Escherichia coli, ATCC25922. On the procedure: (§1) Testing was performed according to CLSI (Clinical Laboratory Standards Institute) guidelines. Read out of the study was determination of MIC—minimal inhibitory concentration expressed in μg/mL.
(§2) Out of these PBS solutions, 76.8 μL was transferred to 1423.2 μL of MH media in deep well for testing compound alone. […] Out of these working solutions 100 μL were transferred to wells in the third column of 96-well assay plates. Assay plates were previously filled with 50 μL of MH media in all wells except for the wells in the third column.
(§3) Microorganisms used were all revived from skim milk storage at −70° C. by plating them on MH agar plates. The following day a single colony of each microorganism was again streaked on fresh agar plates. The next day, using direct colony suspension method, broth solutions that achieve turbidity equivalent to 0.5 McFarland standard for each microorganism were prepared. […] Out of these suspensions, actual inoculums were prepared by diluting them 100× with MH media giving final microorganism count of 2-8×10^5 CFU/mL. For each strain of microorganisms, 20 mL of these inoculum solutions were prepared. From the second to the twelfth column of 96-well plates, 50 μL of these solutions were transferred per well. To the first column, 50 μL per well of pure growth media was added. In this manner the first column was used as sterility control of media used, the second column was used as control of microorganism's growth and the rest of the plate was used for MIC determination. All plates were incubated for 16-24 h at 37° C.
(§4) MIC value was determined by visual inspection of bacterial growth within 96-well plates. The first column in which there was no visible growth of bacteria was determined as MIC value for peptide or combination tested in that particular row.

The subject of assay [2] is Pseudomonas aeruginosa ATCC 27853. As to conditions: Pseudomonas aeruginosa, ATCC27853. On the procedure: as §1, §2, §3, §4
Assay [3] has as its system Acinetobacter baumannii ATCC 17978. As to conditions: Acinetobacter baumannii, ATCC17978. On the procedure:
as §1, §2, §3, §4

In assay [4] the test system is Klebsiella pneumoniae ATCC 700603. To be noted: Klebsiella pneumoniae, ATCC700603. How it is done:
as §1, §2, §3, §4

For the molecule `CN[C@H](CC(C)C)C(=O)N[C@H]1C(=O)N[C@@H](CC(N)=O)C(=O)N[C@H]2C(=O)N[C@H]3C(=O)N[C@H](C(=O)N[C@H](C(=O)O)c4cc(O)cc(O)c4-c4cc3ccc4O)[C@H](O)c3ccc(c(Cl)c3)Oc3cc2cc(c3O[C@@H]2O[C@H](CO)[C@@H](O)[C@H](O)[C@H]2O[C@H]2C[C@](C)(N)[C@H](O)[C@H](C)O2)Oc2ccc(cc2Cl)[C@H]1O` [Vancomycin, reference compound], the MIC was greater than 128 mg/L in assay [1], greater than 128 mg/L in assay [2], 128 mg/L in assay [3] and greater than 128 mg/L in assay [4].

The record behind these values is patent US20200368315A1, “ANTIMICROBIAL PEPTIDES AND ADMIXTURES THEREOF SHOWING ANTIMICROBIAL ACTIVITY AGAINST GRAM-NEGATIVE PATHOGENS” (priority 2017, published 2020).
